Data on eight compounds can be found in patent EP4775567A1, “IONIZABLE CATIONIC LIPID COMPOUNDS AS WELL AS PREPARATION METHOD THEREFOR AND USE THEREOF” (Scindy Pharmaceutical (Suzhou) Co., Ltd, priority 2023, dated 2025).

Data set [1] can be described thus: Encapsulation Rate of luciferase mRNA in lipid nanoparticles (Quant-it Ribogreen RNA kit). In kind it is physicochemical. Conditions: luciferase mRNA in lipid nanoparticles prepared from the compound. As for the experimental part: (§1) Luciferase mRNA was diluted in a 10-100 mM sodium citrate buffer solution at pH 4.0, with the concentration of the mRNA solution being 135 µg/ml. A mixed lipid ethanol solution was prepared at a molar ratio of ionizable cationic lipid compound (each exemplary compound) : DSPC: cholesterol : 2-[(polyethylene glycol)-2000]-N,N-ditetradecylacetamide (ALC-0159) of 50:10:38.5:1.5. The mRNA solution and the mixed lipid solution were mixed at a volume ratio of 3:1 in a nanodrug preparation device, followed by ultrafiltration to obtain luciferase mRNA lipid nanoparticles.
(§2) • 1. Determination of particle size and polydispersity index (PDI): The average particle size and PDI of the nanoparticle sample solutions in the examples were determined by dynamic light scattering using Malvern ZetaSizer Nano ZS90. The measurement angle was 90°, the refractive index of the dispersant was 1.330, and the test temperature was 25°C. • 2. Zeta potential: The Zeta potential of the nanoparticle sample solutions in the examples was determined by electrophoretic light scattering (ELS) using Malvern ZetaSizer Nano ZS90. Refractive index of the dispersant: 1.330, Test temperature: 25°C. • 3. Encapsulation Rate: The Encapsulation Rate of luciferase mRNA in lipid nanoparticles was determined using a Quant-it Ribogreen RNA quantitation kit (ThermoFisher Scientific, UK) in accordance with the manufacturer's instructions.

Another data set relates to HEK 293T cells. The data set can be described thus: In vitro transfection efficiency of luciferase mRNA lipid nanoparticles (luciferase activity). In kind it is cell-based. As to conditions: 100 ng dose, 96-well plate, 24 h incubation; luciferase mRNA lipid nanoparticles. On the procedure: as §1
HEK-293T cells were used to evaluate the in vitro transfection efficiency of lipid nanoparticle compositions prepared from each exemplary compound. HEK293T cells were routinely cultured in DMEM + 10% FBS medium to ensure the cells were in the logarithmic growth phase. One day before transfection, the cells were seeded into a 96-well culture plate at an appropriate cell density and grown overnight. At the time of transfection, the cell confluency needed to reach 70-90%. The lipid nanoparticle compositions prepared from each exemplary compound were diluted into 4 different dose concentrations with DMEM and added to the 96-well cell culture plate, resulting in final concentrations of 400 ng, 200 ng, 100 ng and 50 ng per well, respectively. luciferase plasmid transfected using Lipofectamine 2000 was used as the positive control (PC). After incubation for 24 h in a 5% CO2 incubator at 37°C, the substrate was added to the wells, and the luciferase activity was determined using a microplate reader. […] The luciferase activity of the luciferase mRNA lipid nanoparticles prepared from Compound 1005 in HEK293T cells is shown in Fig. 1.

Data set [2] can be described thus: Particle size and polydispersity index (PDI) by dynamic light scattering. In kind it is physicochemical. Conditions: luciferase mRNA lipid nanoparticles prepared from the compound; 25°C. As for the experimental part:
as §1, §2

The nature of data set [3]: Zeta potential by electrophoretic light scattering. It counts as physicochemical. Conditions: luciferase mRNA lipid nanoparticles prepared from the compound; 25°C. As for the experimental part:
as §1, §2

In a further data set the test system is female Balb/c mice. The data set can be described thus: In vivo transfection efficiency and safety of luciferase mRNA lipid nanoparticles (whole-body live imaging). As to conditions: tail vein injection, single dose 0.3 mpk, 6 h after administration. On the procedure: as §1
6-8 week-old female Balb/c mice were used to evaluate the in vivo transfection efficiency and safety of lipid nanoparticle compositions prepared from each exemplary compound. The lipid nanoparticles prepared from each exemplary compound were administered by tail vein injection at a single dose of 0.3 mpk. At specific time points after administration (e.g., 3 h, 6 h), live imaging of the animals was performed using a PerkinElmer small animal imaging system to determine the bioluminescent signal. The whole-body live imaging of mice at 3 h/6 h after intravenous administration of luciferase mRNA lipid nanoparticles prepared from Compound 1008 is shown in Fig. 2. […] Table 3 Summary of in vitro/in vivo Activity Evaluation of Lipid Nanoparticles Prepared from Compounds

On to `CCCCCCCCCCCCCCCC(CC)C(=O)OCC(COC(=O)C(CC)CCCCCCCCCCCCCCC)(COC(=O)C(CC)CCCCCCCCCCCCCCC)NCCC(=O)NCCN(CCO)CCO` (racemic) [Compound 1014], for which the “Encapsulation Rate” value in data set [1] came out at 70.3%. Moreover, in the data set with HEK 293T cells, the “HEK 293T Cell Luciferase Activity” value is on record as 2.86×10^6 RLU. Also, in data set [2], the “Particle Size” value worked out at 85.4 nm and the “Polydispersity Index (PDI)” value was 0.111. The “Zeta Potential” value in data set [3] is 3.06 mV. Moreover, the “Mouse Whole-Body Average Fluorescence Signal” value in the data set with female Balb/c mice was 3.55×10^4 p/s/cm^2/sr.
Consider `CCCCCCCCCC(CCCCCCCC)C(=O)OCC(COC(=O)C(CCCCCCCC)CCCCCCCCC)(COC(=O)C(CCCCCCCC)CCCCCCCCC)NCCN(C)CCCCO` (racemic) [Compound 3425], for which, in data set [1], the “Encapsulation Rate” value came out at 89.4%. Also, the “HEK 293T Cell Luciferase Activity” value in the data set with HEK 293T cells is given as 6.86×10^6 RLU. Besides, in data set [2], the “Particle Size” value worked out at 82.37 nm and the “Polydispersity Index (PDI)” value was determined as 0.021. For the same compound, the “Zeta Potential” value in data set [3] is given as -21.2 mV. For the same compound, the “Mouse Whole-Body Average Fluorescence Signal” value with female Balb/c mice is recorded as 1.56×10^7 p/s/cm^2/sr.
For `CCCCCCCCCCCCCCCC(CC)C(=O)OCC(COC(=O)C(CC)CCCCCCCCCCCCCCC)(COC(=O)C(CC)CCCCCCCCCCCCCCC)NC(=O)CN` (stereo not drawn) [Compound 1003], the “Encapsulation Rate” value in data set [1] was determined as 95.4%. Besides, in data set [2], the “Particle Size” value is given as 62.59 nm and the “Polydispersity Index (PDI)” value is 0.127. In addition, the “Zeta Potential” value in data set [3] is -3.64 mV.
For `CCCCCCCCCCCCCCCC(CC)C(=O)OCC(COC(=O)C(CC)CCCCCCCCCCCCCCC)(COC(=O)C(CC)CCCCCCCCCCCCCCC)NCCC(=O)NCCN(CCCO)CCCO` (stereo not drawn) [Compound 1015], the “Encapsulation Rate” value in data set [1] stood at 80.3%. The “HEK 293T Cell Luciferase Activity” value with HEK 293T cells is 6.27×10^7 RLU. Besides, in data set [2], the “Particle Size” value was determined as 102.3 nm and the “Polydispersity Index (PDI)” value came out at 0.136. In addition, the “Zeta Potential” value in data set [3] is 4.27 mV. In addition, in the data set on female Balb/c mice, the “Mouse Whole-Body Average Fluorescence Signal” value was 1.43×10^4 p/s/cm^2/sr.
Take `CCCCCCCCCCCCCCCC(CC)C(=O)OCC(COC(=O)C(CC)CCCCCCCCCCCCCCC)(COC(=O)C(CC)CCCCCCCCCCCCCCC)NCCC(=O)NCCN(C)CCO` (stereo not drawn) [Compound 1025]: the “Encapsulation Rate” value in data set [1] was 64.5%. In data set [2], the “Particle Size” value is listed as 77.74 nm and the “Polydispersity Index (PDI)” value was determined as 0.072. Also, the “Zeta Potential” value in data set [3] is on record as 2.84 mV. In the data set with female Balb/c mice, the “Mouse Whole-Body Average Fluorescence Signal” value is reported as 4.20×10^5 p/s/cm^2/sr.
As for `CCCCCCCCCC(CCCCCCCC)C(=O)OCC(COC(=O)C(CCCCCCCC)CCCCCCCCC)(COC(=O)C(CCCCCCCC)CCCCCCCCC)NCCC(=O)NCCN1CCNCC1` (stereo not drawn) [Compound 1111], in data set [1], the “Encapsulation Rate” value came to 83.2%. Further, in the data set on HEK 293T cells, the “HEK 293T Cell Luciferase Activity” value was 3.29×10^4 RLU. Moreover, in data set [2], the “Particle Size” value is given as 110.3 nm and the “Polydispersity Index (PDI)” value was 0.103. Besides, in data set [3], the “Zeta Potential” value was -0.902 mV. The “Mouse Whole-Body Average Fluorescence Signal” value in the data set on female Balb/c mice is 3.10×10^5 p/s/cm^2/sr.
In the case of `CCCCCCCCCC(CCCCCCCC)C(=O)OCC(COC(=O)C(CCCCCCCC)CCCCCCCCC)(COC(=O)C(CCCCCCCC)CCCCCCCCC)NCCC(=O)NCCN(C)CCn1cnc2c(N)ncnc21` (stereo not drawn) [Compound 1139], the “Encapsulation Rate” value in data set [1] worked out at 91.1%. Besides, the “HEK 293T Cell Luciferase Activity” value in the data set on HEK 293T cells is recorded as 4.23×10^5 RLU. Also, in data set [2], the “Particle Size” value is listed as 74.13 nm and the “Polydispersity Index (PDI)” value turned out to be 0.064. Besides, the “Zeta Potential” value in data set [3] was -7.8 mV. The “Mouse Whole-Body Average Fluorescence Signal” value with female Balb/c mice is reported as 3.87×10^5 p/s/cm^2/sr.
With `CCCCCCCCCCCCCCCC(CC)C(=O)OCC(COC(=O)C(CC)CCCCCCCCCCCCCCC)(COC(=O)C(CC)CCCCCCCCCCCCCCC)NCCC(=O)NCCN(C)CCNC(=N)N` (stereo not drawn) [Compound 1140], in data set [1], the “Encapsulation Rate” value stood at 92.4%. The “HEK 293T Cell Luciferase Activity” value with HEK 293T cells was 2.13×10^4 RLU. In data set [2], the “Particle Size” value is listed as 63.21 nm and the “Polydispersity Index (PDI)” value is recorded as 0.127. The “Zeta Potential” value in data set [3] is 4.39 mV. Further, the “Mouse Whole-Body Average Fluorescence Signal” value in the data set with female Balb/c mice is 6.21×10^4 p/s/cm^2/sr.
